Test results: US7115572B2, “Indolicidin analogs with anti-microbial activity” (Council of Scientific and Industrial Research, priority 2001, dated 2006)
Like-named read-outs stand apart in the source and are kept apart here. Marks after values point to notes of the source that are not given here. No end group written: not given here.

Experiments:
Format in all cases: cell-based
[1] = tested on: Escherichia coli (W160.37)
Method: (§1) In still another embodiment of the present invention, the antimicrobial activities of the peptides are determined in liquid medium by a modified method described by Lehrer et al. (10) In still another embodiment of the present invention, all incubations are carried out at 37° C. Microbial growth is determined by measuring the increase in OD600. The lowest concentration of the peptide that result in complete inhibition of growth is recorded as its minimal inhibitory concentration (MIC). In still another embodiment of the present invention, the microorganisms used are Escherichia coli ([…]) and Staphylococcus aureus. A peptide concentration in stock solution is determined by amino acid analysis.

Staphylococcus aureus = tested on: Staphylococcus aureus
Method: as §1

rat erythrocytes = assay: Hemolytic activity on freshly isolated rat erythrocytes
Method: In still another embodiment of the present invention, hemolytic activity of the peptides is assessed on freshly isolated rat erythrocytes.
In still another embodiment of the present invention, heparinized rat blood in saline is initially centrifuged at 1000 rpm for 10 min to remove the buffy coat.
In still another embodiment of the present invention, the erythrocyte suspension is further washed thrice with 5 mM Hepes, pH 7.4 containing 150 mM NaCl.
In still another embodiment of the present invention, aliquots of cell suspension (˜10^6 cells) in eppendorf tubes are incubated with the peptide in duplicates at 37° C. for 30 min with gentle mixing.
In still another embodiment of the present invention, the tubes are then centrifuged and the absorbance of the supernatants is measured at 540 nm. The lysis obtained with 1% triton×100 is taken as 100%.

[2] = lowest concentration giving complete inhibition of growth, 37° C., OD600

Molecule	E.CO// (MIC μg/ml) ([1]; W160.37) [µg/mL]	S.aureus (MIC μg/ml) (Staphylococcus aureus) [µg/mL]	% Hemolytic activity at 100 μg/ml (rat erythrocytes; red cells of rat, 100) [%]	E.CO// (MIC μg/ml) [1, 2] [µg/mL]	S.aureus (MIC μg/ml) (Staphylococcus aureus; [2]) [µg/mL]	% Hemolytic activity at 100 μg/ml (rat erythrocytes; 100 μg/ml peptide, rat erythrocytes, 37° C., 30 min, 1% triton x100 = 100%)
ILPLKLPWLPLRR-NH2 [IL8, ILPLKLPWLPLRR-amide]	20	10	0	–	–	–
ILPLKLPLLPWRR-NH2 [IL11, ILPLKLPLLPWRR-amide]	20	5	0	–	–	–
ILPWKLPLLPLRR-NH2 [IL4, ILPWKLPLLPLRR-amide]	15	10	0	–	–	–
CC[C@H](C)[C@H](N)C(=O)N[C@@H](CC(C)C)C(=O)N1CCC[C@H]1C(=O)N[C@@H](Cc1c[nH]c2ccccc12)C(=O)N[C@@H](CCCCN)C(=O)N[C@@H](Cc1c[nH]c2ccccc12)C(=O)N1CCC[C@H]1C(=O)N[C@@H](Cc1c[nH]c2ccccc12)C(=O)N[C@@H](Cc1c[nH]c2ccccc12)C(=O)N1CCC[C@H]1C(=O)N[C@@H](Cc1c[nH]c2ccccc12)C(=O)N[C@@H](CCCNC(=N)N)C(=O)N[C@@H](CCCNC(=N)N)C(N)=O [IL, ILPWKWPWWPWRR-amide, reference compound]	–	–	–	5	2	100^a %
